The values below come from patent publication US12129248B2, “Chromobox protein inhibitors and uses thereof” (Dana-Farber Cancer Institute, Inc., priority 2016, dated 2024).

Molecules are shown by their SMILES.

The target in one data set is Human His6-CBX7 (Homo sapiens (Human), UniProt O95931). The data set can be described thus: CBX7 AlphaScreen assay (binding of CBX7 chromodomain to H3K27me3 peptide). The following applies: for IC50: average, His6-CBX7 / biotinylated-H3K27me3, read-out: AVG CBX7 Alpha IC50. The source says:
A biochemical assay was developed based on nanoparticle AlphaScreen assay to monitor the binding of recombinant CBX chromodomain (CBX7) to a methylated peptide (H3K27me3).
The primary assay uses recombinant CBX chromodomain and synthetic, trimethylated H3 histone tail peptide. When CBX/histone tail-binding occurs, AlphaScreen beads are brought in close proximity, resulting in singlet molecular oxygen transfer and production of a luminescent signal. Assay positives inhibiting the binding interaction are therefore expected to prevent complex formation, diminishing signal intensity. The AlphaScreen technology features an anti-Stokes shift in detection: due to energy transfer between beads by singlet oxygen and internal chemical reactions within the acceptor bead, the emission wavelength is blue-shifted relative to the excitation wavelength, which is impossible in traditional fluorescent assays. The relatively long path length of 200 nm that singlet molecular oxygen can travel enables reporting on full protein complexes and not just single target binding. […] Neither the small molecules being tested nor the target protein, CBX7, need to be chemically, conformationally, or behaviorally altered by tethering them to a surface or reporter that may decrease physiological relevance and beget screening artifacts. The primary assay monitors binding of the chromodomain of CBX7 to a histone tail containing a trimethylated lysine at K27, the biologically relevant interaction through which PRC binds to chromatin to repress transcription. This is a robust proximity-based assay that utilizes AlphaScreen technology (PerkinElmer). The assay consists of His6-CBX7 bound to a Ni^++ acceptor bead and the biotinylated histone tail bound to a streptavadin donor bead. Upon CBX7/H3K27me3 binding, the steptavidin bead comes into proximity with the Ni^++ bead to luminesce upon light excitation ([…]; see below).
The protocol for the CBX7 AlphaScreen was as follows: a standard alpha buffer (50 mM HEPES, 150 mM NaCl, 0.1% w/v BSA, 0.01% w/v Tween20) at pH 8.0 and make up two stock solutions at 2× final concentration in the alpha buffer. Solution A contains Human His6-CBX7 is used with biotinylated-H3K27me3 (residues 20-34), at 100 nM and 50 nM respectively. Solution B contains 20 nM streptavidin donor beads and 20 nM nickel acceptor beads. For 384 well assay formats, 10 uL of solution A is added to each well of the assay plate and the plate is spun at 1000 rpm for 30 seconds. 100 nL of experimental compounds from stock plates are delivered by robotic pin transfer using a Janus Workstation (PerkinElmer), allowing the compounds to interact with CBX7 binding prior to assay measurement, followed by another spin and an incubation room temperature. Finally, 10 uL of solution B is added to each well, the plate is spun again and then incubated at room temperature. AlphaScreen measurements are performed on an Envision 2104 (PerkinElmer) utilizing the manufacturer's protocol that has the correct excitation and emission wavelengths, cutoff filters, delay time, etc. A crosstalk calculation is also done through the Envision software to correct for luminescence for adjacent wells while reading the plate. The signal is then normalized to DMSO control wells on the compound plate prior to creation of the IC50 curves.
A general note: In Alpha technology, singlet oxygen from a donor bead excites a nearby acceptor bead.

The subject of data set [1] is HCT292 human lung cancer cells. The experiment in a line: HCT292 cell viability (crystal violet / ATPlite). It counts as cell-based. The following applies: for IC50 / viability at 10 µM / viability at 50 µM / viability at 20 µM: Homo sapiens; for IC50: Table 4, assay not given, cited among cellular activity Tables 3-9 (HCT292); for % Viability / viability at 10 µM / viability at 50 µM / viability at 20 µM: HCT292 cells, relative to DMSO; for % Viability: 96 hours; for viability at 10 µM / viability at 50 µM / viability at 20 µM: 96 h. The method, then:
Lastly, the biological activity of lead compounds was assessed in cancer cells lines determined to be sensitive to CBX inhibition. First, a cell line screening for CBX2 and CBX3 dependence/sensitivity was conducted using shRNAs. […] These cell lines were utilized to evaluate the potential cellular activity of a panel of CBX inhibitors (Tables 3-9).
Briefly, HCT292 cells were treated 24 hours after passage; the compounds in DMSO were added directly to their media. Initially, which cells caused cell death was checked by fixing and staining the cells with crystal violet 96-hours post treatment and then reading the absorbance using the Envision and comparing the signal to a DMSO control. This was done as a preliminary viability screen prior to the ATPlite assay to determine which compounds HCT292 cells were and H661 cells were not sensitive to. […] Thus, a cellular system to evaluate the activity of small molecule CBX inhibitors was established.

For orientation: IC50 means the point on the concentration scale where inhibition reaches its midpoint. In general, viability refers to a per cent measure of how many cells are alive, often set against a control. The low end stands for more harm to the cells, the high end for less harm to the cells.

Human His6-CBX7, sequence (O95931 11-69): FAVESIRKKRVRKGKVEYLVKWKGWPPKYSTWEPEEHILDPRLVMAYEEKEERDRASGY

Turning to `O=C(CC1S/C(=N/N=C/c2cccnc2)NC1=O)Nc1ccc(N2CCCC2)cc1` (stereo not drawn) [ACV-14 (2)], the IC50 stood at 10.2 µM on Human His6-CBX7 and 115 µM in data set [1]. Turning to `O=C(CC1S/C(=N/N=C/c2ccc(O)c(O)c2O)NC1=O)Nc1ccc(N2CCCC2)cc1` (stereo not drawn) [ACV-17 (1), 2-(4-oxo-2-((2,3,4-trihydroxybenzylidene)hydrazono)thiazolidin-5-yl)-N-(4-(pyrrolidin-1-yl)phenyl) acetamide], the IC50 on Human His6-CBX7 came to 69.7 µM. Further, in data set [1] (50 uM, listed as 1-258C), the “% Viability” value amounted to 33.0%. Further, the viability at 10 µM in data set [1] (10 uM) was found to be 72.2%. `O=C(CC1S/C(=N/N=C/c2ccc(O)c(O)c2O)NC1=O)Nc1ccc(N2CCCC2)cc1` (stereo not drawn) [ACV-17 (2)]: the results for the concentration for half-maximal inhibition (IC50) (on Human His6-CBX7; in data set [1]) were 0.93 µM and 0.334 µM, respectively. The “% Viability” value in data set [1] (50 uM, listed as 2-165) came out at 58.8%. Turning to `O=C(CC1S/C(=N/N=C/c2ccc(O)c(O)c2O)NC1=O)Nc1ccc(N2CCCC2)cc1` (stereo not drawn) [ACV-17(CP)], the IC50 at Human His6-CBX7 worked out at 1.74 µM. For the same molecule, the “% Viability” value in data set [1] (50 uM, listed as 258C (CP)) is on record as 20.3%. Regarding `O=C(Cc1cnc(NC(=O)Nc2cccnc2)s1)Nc1ccc(N2CCCC2)cc1` [ACV-40, 2-(2-(3-(pyridin-3-yl)ureido)thiazol-5-yl)-N-(4-(pyrrolidin-1-yl)phenyl)acetamide], the 50% inhibitory concentration (IC50) at Human His6-CBX7 worked out at 12.8 µM; in data set [1] it was 83.9 µM. In data set [1] (10 uM), this molecule had a viability at 10 µM of 99%. In data set [1] (50 uM), the viability at 50 µM was 82.9%.

On to `CN(C)c1ccc(CCNC(=O)CC2S/C(=N/N=C/c3cccnc3)NC2=O)cc1` (stereo not drawn) [ACV-42], for which the IC50 at Human His6-CBX7 came to 155 µM; in data set [1], 1000 µM. The viability at 50 µM in data set [1] (50 uM) is 95.8%.

As to `CN1CCN(CCNC(=O)CC2S/C(=N/N=C/c3ccc(O)c(O)c3O)NC2=O)CC1` (stereo not drawn) [ACV-63 (CP)], the concentration for half-maximal inhibition (IC50) on Human His6-CBX7 stood at 5.31 µM. Further, the “% Viability” value in data set [1] (10 uM, listed as 2-195 (CP)) came to 34.9%. Moreover, the viability at 20 µM in data set [1] worked out at 41%. In addition, the viability at 50 µM in data set [1] (50 uM) is 60.6%.

For the molecule `CN1CCN(CCNC(=O)CC2S/C(=N/N=C/c3ccc(O)c(O)c3O)NC2=O)CC1` (stereo not drawn) [ACV-63, N-(2-(4-methylpiperazin-1-yl)ethyl)-2-(4-oxo-2-((2,3,4-trihydroxybenzylidene)hydrazono)thiazolidin-5-yl)acetamide], at Human His6-CBX7, the IC50 is 0.183 µM. The “% Viability” value in data set [1] (10 uM, listed as 2-195) is recorded as 94.2%; in data set [1] (50 uM, listed as 2-195), 43.5%. For `O=C(CCC(=O)c1ccc(CN2CCCC2)cc1)NC1CCCN(C(=O)c2cccnc2)C1` (stereo not drawn) [ACV-70], the IC50 at Human His6-CBX7 stood at 46.7 µM. The same measure, in the same setting: for `O=C(CCC(=O)N1CCCC(NC(=O)c2cccnc2)C1)c1ccc(CN2CCCC2)cc1` (stereo not drawn) [ACV-71] the value was 4920 µM; for `COc1cccc(C(=O)N2CCN(C(=O)COc3cccc(C)c3)CC2)c1OC` [ACV-72], 124 µM; for `O=C(NCCN1CCCC1)c1ccc(-c2csc(N/N=C/c3ccc(O)c(O)c3O)n2)cc1` [ACV-73], 1.65 µM. Regarding `O=C(Cc1cnc(NC(=O)C(F)(F)c2ccccc2)s1)Nc1ccc(N2CCCC2)cc1` [ACV-74], the IC50 at Human His6-CBX7 came to 167 µM. With `CN1CCN(CCNC(=O)c2ccc(-c3csc(N/N=C/c4ccc(O)c(O)c4O)n3)cc2)CC1` [ACV-75], the IC50 at Human His6-CBX7 is 0.0686 µM. For `CN(C)c1ccc(CCNC(=O)CC2SC(N/N=C/c3ccc(N4CCCC4)cc3)=NC2=O)cc1` (stereo not drawn) [ACV-76], the concentration for half-maximal inhibition (IC50) at Human His6-CBX7 was 3.76 µM. `O=C(CC1SC(N/N=C/c2ccc(O)c(O)c2O)=NC1=O)Nc1ccc(N2CCCCC2)cc1` (stereo not drawn) [ACV-78]: the IC50 at Human His6-CBX7 is 0.225 µM.

Regarding `O=C(NCCN1CCCC1)c1ccc(-c2csc(N/N=C/c3cccnc3)n2)cc1` [ACV-79], the concentration for half-maximal inhibition (IC50) at Human His6-CBX7 came to 3.01 µM. Regarding `O=C(COCc1ccc(CN2CCCC2)cc1)N[C@H]1CCCN(Cc2cccnc2)C1=O` [ACV-80], on Human His6-CBX7, the IC50 came out at 2.86e-05 µM. With `CN1CCN(CCNC(=O)Cc2cnc(NC(=O)Nc3cccnc3)s2)CC1` [ACV-81], the IC50 at Human His6-CBX7 worked out at 104 µM. Consider `COc1ccc(CC(=O)Nc2ncc(CC(=O)NCCN3CCN(C)CC3)s2)c(OC)c1OC` [ACV-82], for which, on Human His6-CBX7, the IC50 was 50.8 µM. For the molecule `COc1ccc(CC(=O)Nc2nc(CC(=O)Nc3ccc(N4CCCC4)cc3)cs2)c(OC)c1OC` [ACV-83], the 50% inhibitory concentration (IC50) on Human His6-CBX7 came out at 23.9 µM. On to `O=C(CC12SC(CCN3CCOCC3)(NC1=O)C1C(=O)N(c3ccc(N4CCCC4)cc3)C(=O)C12)Nc1ccc(N2CCCC2)cc1` (stereo not drawn) [ACV-84], for which the half-maximal inhibitory concentration (IC50) at Human His6-CBX7 is 7.26 µM. `CN1CCN(CCNc2nc(CC(=O)Nc3ccc(N4CCCC4)cc3)cs2)CC1` [ACV-85]: the IC50 at Human His6-CBX7 was determined as 54.8 µM.

For `O=C(CC1SC(N/N=C/c2ccc(O)c(O)c2O)=NC1=O)Nc1ccc(N2CCCCCC2)cc1` (stereo not drawn) [ACV-86], on Human His6-CBX7, the IC50 was 11.8 µM.

Regarding `COC(=O)Cc1csc(N/N=C/c2ccc(O)c(O)c2O)n1` [ACV-87], the IC50 on Human His6-CBX7 stood at 7.26 µM. Turning to `COc1ccc(NC(=O)Cc2csc(NCCN3CCN(C)CC3)n2)c(OC)c1` [ACV-88], the IC50 on Human His6-CBX7 came to 246 µM. As for `O=C(Nc1ccc(N2CCCC2)cc1)c1ccc(-c2csc(CCN3CCOCC3)n2)cc1` [ACV-89], the half-inhibitory concentration (IC50) on Human His6-CBX7 was determined as 12.9 µM. This molecule also returned a viability at 10 µM in data set [1] (10 uM) of 31.3%. Besides, in data set [1], the viability at 20 µM was determined as 29%. The molecule also showed a viability at 50 µM in data set [1] (50 uM) of 28%. For the molecule `O=C(N/N=C/c1ccc(N2CCCC2)cc1)c1ccc(-c2csc(NCCc3cccnc3)n2)cc1` [ACV-92], at Human His6-CBX7, the IC50 was 170 µM.

Take `COC(=O)Cc1cnc(NC(=O)c2ccc(CCN3CCCC3)cc2)s1` [ACV-93]: the 50% inhibitory concentration (IC50) at Human His6-CBX7 was found to be 440 µM. Consider `c1cn2c(NC3CCCCC3)c(-c3ccc4[nH]ncc4c3)nc2cn1` [ACV-94], for which, on Human His6-CBX7, the half-inhibitory concentration (IC50) amounted to 123 µM. Still for that read-out and setting: for `COc1ccc(CC(=O)Nc2nc3cc(C(=O)NCCN4CCN(C)CC4)ccc3s2)cc1OC` [ACV-95] the value was 879 µM; for `O=C(Cc1ccc(O)c(O)c1)NCc1nc(CC(=O)Nc2ccc(N3CCCC3)cc2)cs1` [ACV-96], 79.3 µM. For the molecule `O=C(c1ccc(-c2csc(NCCc3cccnc3)n2)cc1)N1CCC(N2CCCC2)CC1` [ACV-97], the IC50 on Human His6-CBX7 was determined as 81.7 µM.

For the molecule `CN1CCN(CCNC(=O)c2ccc(-c3csc(NCCc4cccnc4)n3)cc2)CC1` [ACV-98], at Human His6-CBX7, the IC50 was 121 µM. On the same count and under the same terms, for `O=C(Nc1ccc(N2CCCC2)cc1)c1ccc(-c2csc(NCCc3cccnc3)n2)cc1` [ACV-99] the value was 16.4 µM. Consider `O=C(CC1SC(N2CCC(c3ccc(O)c(O)c3O)=N2)=NC1=O)Nc1ccc(N2CCCC2)cc1` (stereo not drawn) [CBX-08, 2-(4-oxo-2-(3-(2,3,4-trihydroxyphenyl)-4,5-dihydro-1H-pyrazol-1-yl)-4,5-dihydrothiazol-5-yl)-N-(4-(pyrrolidin-1-yl)phenyl)acetamide], for which the IC50 on Human His6-CBX7 is 0.835 µM.

Consider `CN1CCN(CCNC(=O)CC2SC(N3CCC(c4ccc(O)c(O)c4O)=N3)=NC2=O)CC1` (stereo not drawn) [CBX-09, N-(2-(4-methylpiperazin-1-yl)ethyl)-2-(4-oxo-2-(3-(2,3,4-trihydroxyphenyl)-4,5-dihydro-1H-pyrazol-1-yl)-4,5-dihydrothiazol-5-yl)acetamide], for which the IC50 at Human His6-CBX7 was 53.4 µM. With `O=C(CC1S/C(=N\N=C\c2cccnc2)NC1=O)Nc1cccc(Cl)c1Cl` (stereo not drawn) [JQI-III-263-A], the “activity in CBX AlphaScreen assay” value at Human His6-CBX7 (cap scan of Scaffold 3, in words (FIG. 8)) is recorded as “improved activity”.
